Data: ChEMBL document CHEMBL1201862, “PubChem BioAssay data set” (2004)
Counter-ions that a name gives are not always drawn. One block for each compound: values may come before it. Activity calls are given as the source filed them.

Columns and labels:
Cytochrome P450 1A2 = molecular target: T1, Cytochrome P450 1A2 (Homo sapiens, UniProt P05177);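 note: PubChem cytochrome P450 panel assay, CYP1A2 panel member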
T1 sequence (P05177 whole entry): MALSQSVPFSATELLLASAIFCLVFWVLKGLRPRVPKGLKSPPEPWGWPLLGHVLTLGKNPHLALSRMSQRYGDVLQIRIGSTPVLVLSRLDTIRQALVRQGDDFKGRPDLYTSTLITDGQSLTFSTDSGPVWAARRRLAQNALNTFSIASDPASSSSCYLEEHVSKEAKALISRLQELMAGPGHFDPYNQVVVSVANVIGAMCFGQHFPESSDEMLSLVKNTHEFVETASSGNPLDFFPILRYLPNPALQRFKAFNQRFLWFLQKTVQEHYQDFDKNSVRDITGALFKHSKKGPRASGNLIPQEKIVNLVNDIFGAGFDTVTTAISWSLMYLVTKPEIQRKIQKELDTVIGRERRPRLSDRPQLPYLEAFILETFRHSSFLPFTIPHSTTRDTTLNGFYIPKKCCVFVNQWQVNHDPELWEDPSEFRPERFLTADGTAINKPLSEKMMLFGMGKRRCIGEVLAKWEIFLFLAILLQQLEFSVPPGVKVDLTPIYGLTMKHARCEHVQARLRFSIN

[1] = molecular target: Sphingosine 1-phosphate receptor 2 (Homo sapiens, UniProt O95136); assay: Dose Response Cell Based Assay for Agonists of the S1P2 Receptor. [Related pubchem assays: 729, 736, 843 ]; assay type: functional
Sphingosine 1-phosphate receptor 2, sequence (O95136 whole entry): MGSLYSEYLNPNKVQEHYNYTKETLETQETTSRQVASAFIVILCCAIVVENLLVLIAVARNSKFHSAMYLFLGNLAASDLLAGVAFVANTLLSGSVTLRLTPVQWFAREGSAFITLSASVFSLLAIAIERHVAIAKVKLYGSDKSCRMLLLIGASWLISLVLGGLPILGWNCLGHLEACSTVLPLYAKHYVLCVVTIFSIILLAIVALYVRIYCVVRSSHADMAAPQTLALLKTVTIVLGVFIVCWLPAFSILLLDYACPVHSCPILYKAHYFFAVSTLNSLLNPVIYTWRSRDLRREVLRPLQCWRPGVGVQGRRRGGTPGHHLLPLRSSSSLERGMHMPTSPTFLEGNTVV

Cytochrome P450 2C19 = Cytochrome P450 2C19 (Homo sapiens, UniProt P33261); assay: Cytochrome panel assay with activity outcomes. Panel member name: p450-cyp2c19 Compounds with AC50 equal or less than 10 uM are considered active; assay type: functional; settings: read-out: AC50
Cytochrome P450 2C19, sequence (P33261 whole entry): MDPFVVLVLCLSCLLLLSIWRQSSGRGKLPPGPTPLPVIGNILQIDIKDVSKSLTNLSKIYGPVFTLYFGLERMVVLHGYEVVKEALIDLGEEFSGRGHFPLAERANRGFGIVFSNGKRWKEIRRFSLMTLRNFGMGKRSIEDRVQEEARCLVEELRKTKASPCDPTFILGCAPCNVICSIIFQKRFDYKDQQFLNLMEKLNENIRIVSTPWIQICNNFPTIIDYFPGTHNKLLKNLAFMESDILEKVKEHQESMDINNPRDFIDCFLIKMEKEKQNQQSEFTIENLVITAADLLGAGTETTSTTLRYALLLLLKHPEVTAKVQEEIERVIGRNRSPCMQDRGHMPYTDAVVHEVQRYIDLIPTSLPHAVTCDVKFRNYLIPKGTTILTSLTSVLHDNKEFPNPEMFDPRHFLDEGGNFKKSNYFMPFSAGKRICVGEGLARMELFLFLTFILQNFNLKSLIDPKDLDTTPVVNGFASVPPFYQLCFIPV

[2] = Late stage results for the probe development effort to identify inhibitors of Plasmodium falciparum gametocytes: Luminescence-based cell-based high throughput dose response assay to identify inhibitors of viability of late stage Plasmodium falciparum gametocytes.; assay type: functional
[3] = viability inhibitors of stage V gametocytes – luminescence, dose response (AID 1117278); assay type: functional, cell-based;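 note: gametocytes exposed to compound for 24 hours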
[4] = viability loss in human Jurkat cells – cell-based, luminescence, cytotoxicity control for P. falciparum gametocyte viability project, dose response (AID 1117277); assay type: functional;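 note: potency reflects loss of cellular ATP meaning fewer viable cells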
[5] = molecular target: E3 ubiquitin-protein ligase UHRF1 (Homo sapiens, UniProt Q96T88); assay: Counterscreen for inhibitors of 5-meCpG-binding domain protein 2 (MBD2): TRFRET-based biochemical high throughput dose response assay to identify inhibitors of binding of ubiquitin-like with PHD and ring finger domains 1 (UHRF1) to methylated oligonucleotide.
E3 ubiquitin-protein ligase UHRF1, sequence (Q96T88 whole entry, the tested form may be a part): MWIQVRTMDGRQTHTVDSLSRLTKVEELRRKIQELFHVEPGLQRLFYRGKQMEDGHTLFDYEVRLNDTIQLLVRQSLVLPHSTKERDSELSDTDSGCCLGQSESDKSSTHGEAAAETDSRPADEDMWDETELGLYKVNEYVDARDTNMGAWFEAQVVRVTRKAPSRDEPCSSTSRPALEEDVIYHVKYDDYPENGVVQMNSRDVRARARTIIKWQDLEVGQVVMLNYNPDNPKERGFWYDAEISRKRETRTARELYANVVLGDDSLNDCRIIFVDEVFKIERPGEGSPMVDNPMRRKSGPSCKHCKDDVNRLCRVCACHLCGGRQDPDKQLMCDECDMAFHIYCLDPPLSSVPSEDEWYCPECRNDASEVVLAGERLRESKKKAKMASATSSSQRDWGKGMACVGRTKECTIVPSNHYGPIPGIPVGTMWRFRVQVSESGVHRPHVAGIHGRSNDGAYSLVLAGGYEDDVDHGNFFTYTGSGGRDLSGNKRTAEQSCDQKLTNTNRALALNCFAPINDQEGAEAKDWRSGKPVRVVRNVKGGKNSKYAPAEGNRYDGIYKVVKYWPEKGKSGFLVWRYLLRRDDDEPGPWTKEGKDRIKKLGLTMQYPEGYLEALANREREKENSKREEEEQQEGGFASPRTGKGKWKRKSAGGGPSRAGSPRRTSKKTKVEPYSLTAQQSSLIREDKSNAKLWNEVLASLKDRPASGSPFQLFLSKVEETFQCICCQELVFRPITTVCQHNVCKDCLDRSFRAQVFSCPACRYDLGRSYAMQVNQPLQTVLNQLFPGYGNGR

[6] = molecular target: T2, Histone-lysine N-methyltransferase NSD2 (Homo sapiens, UniProt O96028); assay type: biochemical
T2 sequence (O96028 whole entry): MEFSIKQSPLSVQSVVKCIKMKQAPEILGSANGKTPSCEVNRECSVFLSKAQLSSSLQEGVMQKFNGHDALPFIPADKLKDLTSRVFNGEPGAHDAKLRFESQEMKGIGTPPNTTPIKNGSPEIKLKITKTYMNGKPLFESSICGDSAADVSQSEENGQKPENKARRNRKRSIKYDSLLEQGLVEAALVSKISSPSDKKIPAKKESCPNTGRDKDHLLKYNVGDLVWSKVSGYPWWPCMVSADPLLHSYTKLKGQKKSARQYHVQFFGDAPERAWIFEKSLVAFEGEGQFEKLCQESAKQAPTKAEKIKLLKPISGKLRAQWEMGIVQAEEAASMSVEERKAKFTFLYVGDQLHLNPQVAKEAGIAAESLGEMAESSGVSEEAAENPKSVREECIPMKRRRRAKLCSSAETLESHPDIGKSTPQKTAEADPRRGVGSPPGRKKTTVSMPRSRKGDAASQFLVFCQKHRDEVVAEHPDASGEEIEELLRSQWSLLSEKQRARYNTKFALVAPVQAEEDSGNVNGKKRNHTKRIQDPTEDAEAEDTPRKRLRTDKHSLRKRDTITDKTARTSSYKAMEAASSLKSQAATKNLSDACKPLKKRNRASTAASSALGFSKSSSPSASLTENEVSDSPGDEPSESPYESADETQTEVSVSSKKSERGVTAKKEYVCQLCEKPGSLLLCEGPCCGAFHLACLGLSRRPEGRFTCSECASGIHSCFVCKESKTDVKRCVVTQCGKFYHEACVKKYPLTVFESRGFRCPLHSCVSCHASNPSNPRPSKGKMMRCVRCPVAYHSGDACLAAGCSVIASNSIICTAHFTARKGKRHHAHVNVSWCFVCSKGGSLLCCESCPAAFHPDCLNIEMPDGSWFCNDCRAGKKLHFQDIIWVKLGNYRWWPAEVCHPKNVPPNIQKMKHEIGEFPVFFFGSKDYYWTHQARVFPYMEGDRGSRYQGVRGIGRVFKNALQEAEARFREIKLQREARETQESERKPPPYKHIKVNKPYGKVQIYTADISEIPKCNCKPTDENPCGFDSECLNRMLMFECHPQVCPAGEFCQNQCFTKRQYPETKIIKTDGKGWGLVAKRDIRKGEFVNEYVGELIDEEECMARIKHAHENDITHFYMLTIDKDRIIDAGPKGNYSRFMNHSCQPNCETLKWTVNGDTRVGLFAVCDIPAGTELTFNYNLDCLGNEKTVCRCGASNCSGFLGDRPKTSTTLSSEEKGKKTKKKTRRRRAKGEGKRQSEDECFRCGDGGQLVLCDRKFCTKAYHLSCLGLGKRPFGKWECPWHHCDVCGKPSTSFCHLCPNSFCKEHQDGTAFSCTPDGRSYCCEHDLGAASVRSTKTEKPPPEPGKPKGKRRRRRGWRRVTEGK

[7] = molecular target: T3, Small ubiquitin-related modifier 1 (Homo sapiens, UniProt P63165); assay: SUMO1 protein interaction blockers, potency – biochemical, fluorescence polarization, uHTS hits, dose response (AID 624382); assay type: functional; settings: read-out: IC50_Mean
T3 sequence (P63165 whole entry): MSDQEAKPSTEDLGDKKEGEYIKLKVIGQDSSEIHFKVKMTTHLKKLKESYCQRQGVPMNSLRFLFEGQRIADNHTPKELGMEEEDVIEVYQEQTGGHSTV

[8] = molecular target: T3, Small ubiquitin-related modifier 1; assay: SUMO1 protein-protein binding blockers, potency – biochemical, FRET, dose response (AID 624383); assay type: functional; settings: read-out: IC50_Mean
[9] = molecular target: T4, Dual specificity protein phosphatase 6 (Rattus norvegicus, UniProt Q64346); assay: inhibition of rat DUSP6 enzyme activity – biochemical, in vitro, primary screen (AID 425)
T4 sequence (Q64346 whole entry): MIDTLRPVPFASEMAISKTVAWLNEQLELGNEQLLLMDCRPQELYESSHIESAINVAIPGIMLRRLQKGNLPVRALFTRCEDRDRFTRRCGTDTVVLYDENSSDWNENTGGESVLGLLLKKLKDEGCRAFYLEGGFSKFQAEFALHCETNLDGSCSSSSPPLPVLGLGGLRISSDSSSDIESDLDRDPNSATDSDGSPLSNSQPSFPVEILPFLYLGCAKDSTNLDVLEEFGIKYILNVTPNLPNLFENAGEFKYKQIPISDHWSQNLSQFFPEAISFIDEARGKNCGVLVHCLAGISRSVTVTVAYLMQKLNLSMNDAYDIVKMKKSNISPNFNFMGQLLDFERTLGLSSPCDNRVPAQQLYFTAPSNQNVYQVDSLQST

Caspase-6 = Caspase-6 (Homo sapiens, UniProt P55212); assay: inhibition of CASP6 peptide cleavage – biochemical, VEID-R110 fluorescence, cherry-pick, dose response (AID 720632)
Caspase-6, sequence (P55212 24-179 limits assumed): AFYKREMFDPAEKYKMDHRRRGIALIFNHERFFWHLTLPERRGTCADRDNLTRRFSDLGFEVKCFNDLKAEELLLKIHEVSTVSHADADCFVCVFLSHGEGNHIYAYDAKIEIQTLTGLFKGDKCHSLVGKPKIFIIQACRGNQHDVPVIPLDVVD
Caspase-6, sequence (P55212 194-293 limits assumed): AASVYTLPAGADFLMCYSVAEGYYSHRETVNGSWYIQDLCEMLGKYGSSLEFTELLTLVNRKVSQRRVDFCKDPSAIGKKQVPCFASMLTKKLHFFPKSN

[10] = molecular target: Glutathione-S-transferase (Schistosoma japonicum, UniProt Q26513); assay: GST-antibody interaction or FRET quenching – biochemical, TR-FRET, artefact control for Vif-APOBEC3G degradation inhibitor project, dose response (AID 1117362); assay type: functional
Glutathione-S-transferase, sequence (Q26513 whole entry): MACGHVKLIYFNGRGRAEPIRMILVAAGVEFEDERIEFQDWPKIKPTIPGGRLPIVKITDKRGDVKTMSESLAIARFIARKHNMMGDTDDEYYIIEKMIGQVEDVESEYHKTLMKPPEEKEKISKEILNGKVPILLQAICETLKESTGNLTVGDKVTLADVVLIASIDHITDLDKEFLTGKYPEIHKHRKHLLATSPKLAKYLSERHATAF

[11] = molecular target: Metabotropic glutamate receptor 7 (Homo sapiens, UniProt Q14831); assay: potentiation of glutamate EC20 at mGlu7 – cell-based, calcium mobilization, Galpha15, dose response (AID 743384); assay type: functional
Metabotropic glutamate receptor 7, sequence (Q14831 whole entry): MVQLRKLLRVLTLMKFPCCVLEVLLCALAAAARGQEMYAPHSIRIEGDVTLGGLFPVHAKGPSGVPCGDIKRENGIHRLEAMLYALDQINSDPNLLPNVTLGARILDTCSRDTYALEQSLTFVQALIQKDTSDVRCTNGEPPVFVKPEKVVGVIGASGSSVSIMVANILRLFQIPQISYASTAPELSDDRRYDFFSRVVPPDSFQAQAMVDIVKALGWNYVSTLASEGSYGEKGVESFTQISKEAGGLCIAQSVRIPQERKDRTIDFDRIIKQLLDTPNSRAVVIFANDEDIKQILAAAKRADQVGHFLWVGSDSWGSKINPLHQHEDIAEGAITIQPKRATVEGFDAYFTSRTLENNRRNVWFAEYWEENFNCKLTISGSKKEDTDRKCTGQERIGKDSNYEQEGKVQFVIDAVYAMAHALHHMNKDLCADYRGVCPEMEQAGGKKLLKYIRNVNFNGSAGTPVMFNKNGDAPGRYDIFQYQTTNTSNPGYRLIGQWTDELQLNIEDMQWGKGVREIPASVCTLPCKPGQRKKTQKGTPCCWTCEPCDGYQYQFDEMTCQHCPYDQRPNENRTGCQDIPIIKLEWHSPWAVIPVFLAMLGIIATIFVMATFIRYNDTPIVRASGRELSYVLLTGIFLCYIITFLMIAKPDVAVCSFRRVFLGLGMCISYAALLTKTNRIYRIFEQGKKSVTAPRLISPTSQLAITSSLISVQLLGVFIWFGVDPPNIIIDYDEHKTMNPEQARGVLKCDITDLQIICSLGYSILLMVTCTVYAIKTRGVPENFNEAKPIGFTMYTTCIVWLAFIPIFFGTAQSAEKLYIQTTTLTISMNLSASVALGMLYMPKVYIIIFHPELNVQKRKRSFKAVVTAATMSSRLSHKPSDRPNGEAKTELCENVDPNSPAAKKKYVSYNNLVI

[12] = Dd2 parasite growth inhibition in erythrocytes – SYBR Green, dry powder samples, set 4, dose response (AID 1159572); assay type: functional, cell-based
[13] = molecular target: RNA-editing ligase 1, mitochondrial (Trypanosoma brucei brucei, UniProt P86926); assay: inhibition of trypanosome RNA editing ligase – biochemical, fluorescence, Trypanosoma brucei, dose response (AID 1117295); assay type: functional
RNA-editing ligase 1, mitochondrial, sequence (P86926 whole entry): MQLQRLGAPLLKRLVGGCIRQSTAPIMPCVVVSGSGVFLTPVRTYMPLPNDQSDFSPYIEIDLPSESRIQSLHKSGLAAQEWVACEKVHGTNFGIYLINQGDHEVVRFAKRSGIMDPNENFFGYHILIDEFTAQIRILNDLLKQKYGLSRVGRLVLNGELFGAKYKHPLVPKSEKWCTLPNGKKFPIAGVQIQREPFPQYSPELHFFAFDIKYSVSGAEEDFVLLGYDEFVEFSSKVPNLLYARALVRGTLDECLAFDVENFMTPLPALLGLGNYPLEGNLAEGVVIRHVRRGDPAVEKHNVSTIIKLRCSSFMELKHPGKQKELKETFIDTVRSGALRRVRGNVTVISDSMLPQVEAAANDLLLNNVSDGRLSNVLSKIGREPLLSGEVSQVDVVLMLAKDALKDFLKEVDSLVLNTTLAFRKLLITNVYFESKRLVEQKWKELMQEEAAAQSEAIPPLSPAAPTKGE

Heat shock protein HSP90 = Heat shock protein HSP90 (Homo sapiens, UniProt P07900+P08238); assay: Hsp90 blockade concentration-response – dose response (AID 712); assay type: functional
[14] = molecular target: T5, Aryl hydrocarbon receptor (Homo sapiens, UniProt P35869); settings: Potency;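 note: confirmatory quantitative high-throughput screen measuring activation of the AhR signaling pathway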
T5 sequence (P35869 whole entry): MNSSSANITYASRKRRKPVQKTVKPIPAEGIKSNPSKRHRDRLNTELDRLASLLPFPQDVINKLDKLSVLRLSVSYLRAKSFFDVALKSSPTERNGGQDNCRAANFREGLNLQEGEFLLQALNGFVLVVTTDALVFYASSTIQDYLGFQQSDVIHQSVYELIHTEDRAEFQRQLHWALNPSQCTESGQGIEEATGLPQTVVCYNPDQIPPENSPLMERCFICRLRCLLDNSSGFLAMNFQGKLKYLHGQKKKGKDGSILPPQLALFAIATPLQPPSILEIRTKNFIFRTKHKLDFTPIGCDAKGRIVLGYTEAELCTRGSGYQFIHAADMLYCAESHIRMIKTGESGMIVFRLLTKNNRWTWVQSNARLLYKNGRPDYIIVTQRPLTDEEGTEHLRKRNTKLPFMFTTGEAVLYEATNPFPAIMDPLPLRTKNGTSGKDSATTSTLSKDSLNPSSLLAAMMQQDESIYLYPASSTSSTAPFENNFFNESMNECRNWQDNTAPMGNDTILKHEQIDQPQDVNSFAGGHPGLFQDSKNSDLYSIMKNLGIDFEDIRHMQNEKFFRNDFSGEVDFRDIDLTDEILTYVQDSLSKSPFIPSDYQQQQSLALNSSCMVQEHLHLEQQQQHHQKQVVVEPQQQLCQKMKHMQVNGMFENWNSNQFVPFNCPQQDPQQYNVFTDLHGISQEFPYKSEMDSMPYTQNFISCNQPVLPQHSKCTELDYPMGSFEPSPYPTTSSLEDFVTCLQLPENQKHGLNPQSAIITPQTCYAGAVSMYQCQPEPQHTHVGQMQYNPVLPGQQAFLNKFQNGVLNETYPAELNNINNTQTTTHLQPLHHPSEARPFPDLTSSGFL

[15] = glucagon-like peptide-1 release potency in STC-1, concentration-response, half-maximal inhibitory concentration in the STC-1 line (AID 1117345); assay type: functional, cell-based
[16] = Potency on glucagon-like peptide 1 release, dose-response in NCI-H716 cell line, half maximal inhibitory concentration (AID 1117344); assay type: functional, cell-based
[17] = cytotoxicity toward Colo320 cells – cell-based, CellTiter-Glo luminescence, IC50, dose response (AID 1117334); assay type: functional; settings: COLO 320
[18] = SNU-C1 cell viability reduction, dose response, CellTiter-Glo luminescence (AID 1117323); assay type: functional, cell-based
[19] = Reduced DLD-1 viability, concentration-response, CellTiter-Glo luminescence (AID 1117352); assay type: functional
[20] = cytotoxicity toward HCT116 cells – cell-based, CellTiter-Glo luminescence, IC50, dose response (AID 1117332); assay type: functional; settings: HCT-116
[21] = HCT116 cell viability decrease, GSK3B pretreatment – CellTiter-Glo, IC50, dose response (AID 1117339); assay type: functional; settings: HCT-116
[22] = CellTiter-Glo luminescence survival assay, SW480 colon tumor line, concentration-response curve, half-maximal inhibitory concentration (AID 1117338); assay type: functional
[23] = RKO cell viability reduction, dose response, CellTiter-Glo luminescence (AID 1117322); assay type: functional
[24] = cytotoxicity toward HT-29 cells – cell-based, CellTiter-Glo luminescence, IC50, dose response (AID 1117330); assay type: functional
[25] = IC50 of insulin release inhibition, rat insulinoma INS-1E line, 5 mM glucose, cell-based (AID 1117331); assay type: functional

AC50 (Cytochrome P450 1A2): 1.41 µM (inconclusive) | EC50 [1]: 2.89 µM (active) | AC50 (Cytochrome P450 2C19): 1.12 µM (inconclusive)
Compound: O=c1c(-c2nc3ccccc3s2)cccn1Cc1ccc(Cl)cc1

Compound: O=C(Nc1nccs1)c1cn(-c2ccccc2)nc1-c1ccncc1
IC50 [2]: > 37.2 µM (inactive) | IC50 [3]: 9.12 µM (active) | IC50 [4]: > 83.3 µM (inactive)

Compound: CCCCn1c(NC(=O)c2ccccc2)c(C#N)c2nc3ccccc3nc21
IC50 [5]: > 43.8 µM (inactive) | AC50 [6]: 2.61 µM (active) | IC50 [7]: > 66.6 µM (inactive) | IC50 [8]: 17.4 µM (active) | IC50 [9]: > 100 µM (not active) | AC50 (Caspase-6): 47.4 µM (active)

IC50 [10]: > 100 µM (active)
Compound: Cc1nc2c(Cl)cccc2c(O)c1CN1CCCC1

EC50 [11]: 10 µM (active)
Compound: COC(=O)c1ccc(-n2c(C)cc(C(=O)COc3ccc(OC(C)=O)cc3)c2C)cc1

Compound: COc1ccc2c3c([nH]c2c1)[C@H](CO)N(C(C)=O)CC31CCN(Cc2ccccc2Cl)CC1
AC50 [12]: 17.1 µM (active)

IC50 [13]: > 96.6 µM (inactive)
Compound: COC(=O)C1=C(C)N(Cc2ccccc2C(F)(F)F)C(NCc2ccc3c(c2)OCO3)=NC1c1cccc(F)c1 (stereo not given)

Compound: CCn1nc(-c2cccs2)nc2c(=O)n(C)c(=O)nc1-2
IC50 (Heat shock protein HSP90): 5 µM | IC50 [9]: 1.98 µM (active)

Compound: CC(C)(Oc1ccc(C2CC2(Cl)Cl)cc1)C(=O)O (stereo not given) [CIPROFIBRATE]
AC50 [14]: 70.8 µM (inconclusive) | IC50 [15]: > 40 µM (inactive) | IC50 [16]: > 40 µM (inactive)

Compound: O=C(Nc1ccc(Cl)cc1)Nc1ccc(Cl)c(C(F)(F)F)c1 [CLOFLUCARBAN]
IC50 [17]: 0.003 µM (active) | IC50 [18]: 0.009 µM (active) | IC50 [19]: 0.027 µM (active) | IC50 [20]: 0.003 µM (active) | IC50 [21]: 0.003 µM (active) | IC50 [22]: 0.009 µM (active) | IC50 [23]: 0.003 µM (active) | IC50 [24]: 0.001 µM (active)

Compound: CCN(CC)C(C)CN1c2ccccc2Sc2ccccc21 (stereo not given) [ETHOPROPAZINE HYDROCHLORIDE]
IC50 [25]: > 33.3 µM (inactive)
